Data: the NIST ThermoML archive (doi:10.1016/j.fluid.2017.01.019)

Experiment: xn = mol fraction of the nth substance listed
Conditions: 100 kPa, Liquid; for speed of sound: Frequency=3 MHz, Sing-around technique in a fixed-path interferometer; for viscosity: Falling or rolling sphere viscometry; for mass density: Vibrating tube method

CCOS(=O)(=O)[O-].CCn1cc[n+](C)c1 [1-ethyl-3-methylimidazolium ethyl sulfate] + CO
Conditions | mass density [kg/m3] | speed of sound [m/s] | viscosity [mPa·s]
293.15 K, x1 = 0.1067 | – | 1292.5 | –
293.15 K, x1 = 0.1996 | – | 1399.1 | –
293.15 K, x1 = 0.2919 | – | 1473.1 | –
293.15 K, x1 = 0.4021 | – | 1533.8 | –
293.15 K, x1 = 0.4918 | – | 1569.6 | –
293.15 K, x1 = 0.609 | – | 1606.4 | –
293.15 K, x1 = 0.7095 | – | 1632.8 | –
293.15 K, x1 = 0.8014 | – | 1652.9 | –
293.15 K, x1 = 0.904 | – | 1667.9 | –
293.15 K, x1 = 1 | – | 1682.3 | –
298.15 K, x1 = 0.1067 | 961.555 | – | 1.45
298.15 K, x1 = 0.1996 | 1042.5 | – | 3.84
298.15 K, x1 = 0.2919 | 1095.83 | – | 4.57
298.15 K, x1 = 0.4021 | 1138.91 | – | 7.83
298.15 K, x1 = 0.4918 | 1164.2 | – | 12.99
298.15 K, x1 = 0.609 | 1188.99 | – | 19.97
298.15 K, x1 = 0.7095 | 1204.69 | – | 31.61
298.15 K, x1 = 0.8014 | 1216.59 | – | 45.92
298.15 K, x1 = 0.904 | 1227.45 | – | 65.82
298.15 K, x1 = 1 | 1236.33 | – | 96.21
303.15 K, x1 = 0.1067 | 957.326 | 1278.1 | 1.35
303.15 K, x1 = 0.1996 | 1038.4 | 1386.3 | 3.29
303.15 K, x1 = 0.2919 | 1092.01 | 1459.8 | 4.15
303.15 K, x1 = 0.4021 | 1135.31 | 1522.6 | 7.09
303.15 K, x1 = 0.4918 | 1160.82 | 1556.9 | 11.38
303.15 K, x1 = 0.609 | 1185.52 | 1592.1 | 17.26
303.15 K, x1 = 0.7095 | 1201.31 | 1620.4 | 26.48
303.15 K, x1 = 0.8014 | 1213.11 | 1639.1 | 37.65
303.15 K, x1 = 0.904 | 1224.02 | 1655.7 | 53.03
303.15 K, x1 = 1 | 1232.93 | 1670 | 75.89
308.15 K, x1 = 0.1067 | 952.925 | 1263.8 | 1.26
308.15 K, x1 = 0.1996 | 1034.33 | 1372.7 | 2.8
308.15 K, x1 = 0.2919 | 1088.21 | 1446.5 | 3.78
308.15 K, x1 = 0.4021 | 1131.6 | 1509.8 | 6.42
308.15 K, x1 = 0.4918 | 1157.42 | 1544.4 | 10.02
308.15 K, x1 = 0.609 | 1182.08 | 1579.7 | 15.14
308.15 K, x1 = 0.7095 | 1198 | 1608.1 | 22.48
308.15 K, x1 = 0.8014 | 1209.7 | 1627 | 31.44
308.15 K, x1 = 0.904 | 1220.61 | 1643.6 | 43.71
308.15 K, x1 = 1 | 1229.57 | 1657.9 | 60.73
313.15 K, x1 = 0.1067 | 948.697 | 1249.6 | 1.17
313.15 K, x1 = 0.1996 | 1030.41 | 1359.3 | 2.47
313.15 K, x1 = 0.2919 | 1084.41 | 1433.5 | 3.48
313.15 K, x1 = 0.4021 | 1127.88 | 1497.1 | 5.85
313.15 K, x1 = 0.4918 | 1153.83 | 1531.8 | 8.91
313.15 K, x1 = 0.609 | 1178.56 | 1567.3 | 13.32
313.15 K, x1 = 0.7095 | 1194.76 | 1596 | 19.31
313.15 K, x1 = 0.8014 | 1206.29 | 1615 | 26.51
313.15 K, x1 = 0.904 | 1217.22 | 1631.6 | 36.28
313.15 K, x1 = 1 | 1226.21 | 1645.9 | 49.38
318.15 K, x1 = 0.1067 | 944.458 | 1235.4 | 1.09
318.15 K, x1 = 0.1996 | 1026.64 | 1345.8 | 2.23
318.15 K, x1 = 0.2919 | 1080.74 | 1420.5 | 3.21
318.15 K, x1 = 0.4021 | 1124.28 | 1484.5 | 5.34
318.15 K, x1 = 0.4918 | 1150.3 | 1519.3 | 7.96
318.15 K, x1 = 0.609 | 1175.06 | 1555 | 11.78
318.15 K, x1 = 0.7095 | 1191.48 | 1584 | 16.79
318.15 K, x1 = 0.8014 | 1202.9 | 1603.1 | 22.62
318.15 K, x1 = 0.904 | 1213.85 | 1619.7 | 30.46
318.15 K, x1 = 1 | 1222.87 | 1634.1 | 40.93
323.15 K, x1 = 0.1067 | 940.54 | 1221.4 | 1.02
323.15 K, x1 = 0.1996 | 1022.72 | 1332.3 | 1.95
323.15 K, x1 = 0.2919 | 1077.09 | 1407.6 | 2.96
323.15 K, x1 = 0.4021 | 1120.78 | 1471.9 | 4.85
323.15 K, x1 = 0.4918 | 1146.92 | 1506.8 | 7.08
323.15 K, x1 = 0.609 | 1171.65 | 1542.8 | 10.54
323.15 K, x1 = 0.7095 | 1188.29 | 1572.1 | 14.68
323.15 K, x1 = 0.8014 | 1199.51 | 1591.3 | 19.5
323.15 K, x1 = 0.904 | 1210.5 | 1607.9 | 25.98
323.15 K, x1 = 1 | 1219.54 | 1622.3 | 33.82
